Reference: the supplement of paper PMC7108870

Columns and labels:
HEK293sieSTAT3(Y640F) [1] = experiment: drug sensitivity score (DSS), cytotoxicity CellTox Green (DSS (dimensionless)); higher = more cytotoxic; extreme values may be limits of the assay; settings: 72 h; STAT3 variant: Y640F (constitutively active)
In short: (§1)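 In 384-well plates with acoustically pre-plated compounds (5 concentrations, 10-fold dilutions), 20 μl of HEK293 cells at 100,000 cells/ml were added; the cells overexpressed wild-type or mutant STAT3 and carried a STAT3-dependent luciferase reporter. Incubation lasted 72 hours at 37°C and 5% CO2 before sequential CellTox Green (485/520 nm) and CellTiter-Glo reads on a PHERAstar FS. After normalisation to negative and positive control wells, Breeze was used to derive a drug sensitivity score from the dose-response curve area.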

HEK293sieSTAT3(wt) [2] = experiment: as above; settings: 72 h; STAT3 variant: wild type
In short: as §1

HEK293sieSTAT3(Y640F) [3] = experiment: drug sensitivity score (DSS), viability CellTiter-Glo (DSS (dimensionless)); higher = more growth inhibition; extreme values may be limits of the assay; settings: 72 h; STAT3 variant: Y640F (constitutively active)
In short: as §1

HEK293sieSTAT3(wt) [4] = experiment: as above; settings: 72 h; STAT3 variant: wild type
In short: as §1

Structure (SMILES)	drug sensitivity score (HEK293sieSTAT3(Y640F) [1])	drug sensitivity score (HEK293sieSTAT3(wt) [2])	drug sensitivity score (HEK293sieSTAT3(Y640F) [3])	drug sensitivity score (HEK293sieSTAT3(wt) [4])
CC(C)Oc1ccc(C(=O)N[C@H](CNC(=O)CN(C)C)Cc2ccc(-c3cn4cccc([C@H](C)O)c4n3)cc2)cc1Cl (top concentration tested 10000 nM)	2.45	11.4	14.7	15.3
Cn1cc(-c2ccc3nnc(C(F)(F)c4ccc5ncccc5c4)n3n2)cn1 (top concentration tested 10000 nM)	0	0	0	3.09
NC(=S)N/N=C/c1ncccc1N [Triapine] (top concentration tested 10000 nM)	1.5	0.84	14.7	9.19
COc1cc2/c(=N/c3ccc(Br)cc3F)nc[nH]c2cc1OCC1CCN(C)CC1 [Vandetanib] (top concentration tested 1000 nM)	0	0	2.31	4.73
Cc1c(N)nc([C@H](CC(N)=O)NC[C@H](N)C(N)=O)nc1C(=O)N[C@H](C(=O)N[C@H](C)[C@@H](O)[C@H](C)C(=O)N[C@H](C(=O)NCCc1nc(-c2nc(C(=O)NCCC[S+](C)C)cs2)cs1)[C@@H](C)O)[C@@H](OC1OC(CO)C(O)C(O)C1OC1OC(CO)C(O)C(OC(N)=O)C1O)c1cnc[nH]1 (stereo not given in full) [Bleomycin] (top concentration tested 10000 nM)	4.25	5.92	20.1	18.8
COc1cccc2c1C(=O)c1c(O)c3c(c(O)c1C2=O)C[C@@](O)(C(C)=O)C[C@@H]3O[C@H]1C[C@H](N)[C@H](O)[C@H](C)O1 [Daunorubicin] (top concentration tested 1000 nM)	0	0	21.9	24
CNNCc1ccc(C(=O)NC(C)C)cc1 [Procarbazine] (top concentration tested 10000 nM)	0	0	0	0
Cc1[nH]c(/C=C2\C(=O)Nc3ccccc32)c(C)c1CCC(=O)O [Orantinib] (top concentration tested 10000 nM)	18.4	21.6	1.85	1.33
Cc1cc([C@@H](C)Nc2ccccc2C(=O)O)c2nc(N3CCOCC3)cc(=O)n2c1 [AZD-6482] (top concentration tested 2500 nM)	0	0.89	1.08	1.97
CNC(=O)c1cccc2cc(Oc3ccnc4cc(OCC5(N)CC5)c(OC)cc34)ccc12 [Lucitanib] (top concentration tested 10000 nM)	0	7.65	1.79	5.26
CN(C)C(=O)c1cc2cnc(Nc3ccc(N4CCNCC4)cn3)nc2n1C1CCCC1 [Ribociclib] (top concentration tested 10000 nM)	0.06	2.66	4.33	5.65
Cc1cnc(Nc2ccc(OCCN3CCCC3)cc2)nc1Nc1cccc(S(=O)(=O)NC(C)(C)C)c1 [Fedratinib] (top concentration tested 10000 nM)	5.36	9.22	7.35	8.5
CN(C)C1CCN(C(=O)c2ccc(NC(=O)Nc3ccc(-c4nc(N5CCOCC5)nc(N5CCOCC5)n4)cc3)cc2)CC1 [Gedatolisib] (top concentration tested 1000 nM)	0	0.82	12.9	9.54
CCc1nc(-c2cccc(C)c2)c(-c2ccnc(NC(=O)c3ccccc3)c2)s1 [TAK-715] (top concentration tested 10000 nM)	0	0	4.68	4.5
O=C(O)c1ccc(CN2CCC(CN[C@@H]3C[C@H]3c3ccccc3)CC2)cc1 (top concentration tested 10000 nM)	0	0	0	0
Oc1ncc(N(CCCl)CCCl)c(O)n1 [Uramustine] (top concentration tested 10000 nM)	0	0	0.79	0.26
O=C(Nc1cccc(NC(=O)c2cccc(O)c2O)c1)c1cccc(O)c1O [MST-312] (top concentration tested 10000 nM)	1.09	6.46	6.74	13.2
O=C(O)CC1CC(c2ccccc2)=NO1 (stereo not given) [VGX-1027] (top concentration tested 10000 nM)	0	0	3.98	1.07
O=NN(CCCl)C(=O)NC1CCCCC1 [Lomustine] (top concentration tested 10000 nM)	0	0	0	0
C=C(c1ccc(C(=O)O)cc1)c1cc2c(cc1C)C(C)(C)CCC2(C)C [Bexarotene] (top concentration tested 10000 nM)	0	0	2	3.75
CCCS(=O)(=O)Nc1ccc(F)c(C(=O)c2c[nH]c3ncc(-c4ccc(Cl)cc4)cc23)c1F [Vemurafenib] (top concentration tested 10000 nM)	3.47	4.84	0	1.57
Cc1c(C(=O)Nc2ccc(N3C[C@@H](C)O[C@@H](C)C3)nc2)cccc1-c1ccc(OC(F)(F)F)cc1 [Sonidegib] (top concentration tested 10000 nM)	0	0	1.71	3.16
Cc1cc(C)c(/C=C2\C(=O)Nc3ccccc32)[nH]1 [Semaxanib] (top concentration tested 10000 nM)	3.22	8.57	0	2.08

Structure (SMILES)	drug sensitivity score (HEK293sieSTAT3(Y640F) [1])	drug sensitivity score (HEK293sieSTAT3(wt) [2])	drug sensitivity score (HEK293sieSTAT3(Y640F) [3])	drug sensitivity score (HEK293sieSTAT3(wt) [4])
Cn1cc(C2=Nc3cc(NC(=O)C(N)C4CCCCC4)cc4c3C2=CNNC4=O)cn1 (stereo not given) (top concentration tested 10000 nM)	2.57	5.91	17.5	15.8
C#Cc1cccc(Nc2ncnc3cc4c(cc23)OCCOCCOCCO4)c1 [Icotinib] (top concentration tested 10000 nM)	0	0.13	0.77	1.11
CN1CCc2c(c3ccccc3n2Cc2ccc(C(=O)NO)cc2)C1 [Tubastatin A] (top concentration tested 10000 nM)	5.37	7.38	8.41	8.98
C/C(=C\c1csc(C)n1)[C@@H]1C[C@@H]2O[C@]2(C)CCC[C@H](C)[C@H](O)[C@@H](C)C(=O)C(C)(C)[C@@H](O)CC(=O)O1 [Patupilone] (top concentration tested 1000 nM)	4.17	15.5	19.1	21.9
Cc1cc2c(F)c(Oc3ncnn4cc(OC[C@@H](C)O)c(C)c34)ccc2[nH]1 [Brivanib] (top concentration tested 1000 nM)	0	0	0.26	0
Cc1cc(Nc2cc(CN3CCOCC3)c3nc(C)c(Cc4ccc(Cl)cc4F)n3n2)n[nH]1 [Gandotinib] (top concentration tested 10000 nM)	2.66	6.79	5.34	8.78
CN(C)C(=N)NC(=N)N [Metformin] (top concentration tested 100000 nM)	0	2.32	0.22	2.41
CO[C@@H]1[C@H](N(C)C(=O)c2ccccc2)C[C@H]2O[C@]1(C)n1c3ccccc3c3c4c(c5c6ccccc6n2c5c31)C(=O)NC4 [Midostaurin] (top concentration tested 10000 nM)	0	2.79	5.01	4.05
C[C@@H](Oc1cc(-n2cnc3ccc(CN4CCN(C)CC4)cc32)sc1C(N)=O)c1ccccc1C(F)(F)F (top concentration tested 10000 nM)	15.3	37.4	37.9	36.5
COc1cc(Nc2ncc3c(n2)-c2ccc(Cl)cc2C(c2c(F)cccc2OC)=NC3)ccc1C(=O)O [Alisertib] (top concentration tested 10000 nM)	0	8.65	9.16	12.1
O=S(=O)(c1cccc2cnccc12)N1CCCNCC1 [Fasudil] (top concentration tested 50000 nM)	2.11	4.45	4.74	3.23
Nc1ncn([C@H]2C[C@H](O)[C@@H](CO)O2)c(=O)n1 [Decitabine] (top concentration tested 10000 nM)	0.02	3.31	7.35	10.4
COc1cc2c(Oc3ccc4[nH]c(C)cc4c3F)ncnc2cc1OCCCN1CCCC1 [Cediranib] (top concentration tested 1000 nM)	0	0.26	1.03	1.46
O=C1CN2Cc3c(ccc(Cl)c3Cl)N=C2N1 [Anagrelide] (top concentration tested 10000 nM)	0.01	0.62	0.64	0.64
C[C@]1(O)C[C@@H](c2nc(-c3ccc4ccc(-c5ccccc5)nc4c3)c3c(N)nccn32)C1 [Linsitinib] (top concentration tested 10000 nM)	0	0	5.71	2.31
CN1CCN(c2ccc3nc(-c4c(N)c5c(F)cccc5[nH]c4=O)[nH]c3c2)CC1 [Dovitinib] (top concentration tested 10000 nM)	0	0	0.03	0
OC[C@H]1O[C@@H](n2cnc3c2N=CNC[C@H]3O)C[C@@H]1O [Pentostatin] (top concentration tested 10000 nM)	0	0	0.02	1.4
Cc1nc(=O)c2cc(CN(C)c3ccc(C(=O)N[C@@H](CCC(=O)O)C(=O)O)s3)ccc2[nH]1 [Raltitrexed] (top concentration tested 1000 nM)	0	2.49	20.1	15.1
CON(C)C(=O)N1N=C(c2cc(F)ccc2F)S[C@@]1(CCCN)c1ccccc1 [Filanesib] (top concentration tested 1000 nM)	0.58	17	15	21.2
Cc1ccc(Nc2nccc(N(C)c3ccc4c(C)n(C)nc4c3)n2)cc1S(N)(=O)=O [Pazopanib] (top concentration tested 10000 nM)	0	0	0.04	0.89
COc1cc2c(cc1-c1c(C)noc1C)ncc1[nH]c(=O)n([C@H](C)c3ccccn3)c12 [I-BET151] (top concentration tested 10000 nM)	2.48	6.67	8.85	5.57
CCN(c1cc(-c2ccc(CN3CCOCC3)cc2)cc(C(=O)NCc2c(C)cc(C)[nH]c2=O)c1C)C1CCOCC1 [Tazemetostat] (top concentration tested 10000 nM)	0	0	0	1.85
